What follows are molecules tested against STING (Homo sapiens, UniProt Q86WV6, G230A/H232R/R293Q/R71H) (assay: STING reporter assay: THP1-Dual KO-IFNAR2 cells stimulated with 2′3′cGAMP, luciferase reporter activity). Conditions: 15 μM 2′3′cGAMP, 24h, class symbols.
Type: cell-based
Protocol: STING pathway activation by the compounds described herein were measured using THP1-Dual™ cells (KO-IFNAR2).
THP1-Dual™ KO-IFNAR2 Cells (obtained from invivogen) were maintained in RPMI, 10% FCS, 5 ml P/S, 2 mM L-glut, 10 mM Hepes, and 1 mM sodium pyruvate. Compounds were spotted in empty 384 well tissue culture plates (Greiner 781182) by Echo for a final concentration of 0.0017-100 μM. Cells were plated into the TC plates at 40 μL per well, 2×10E6 cells/mL. For activation with STING ligand, 2′3′cGAMP (MW 718.38, obtained from Invivogen), was prepared in Optimem media.
The following solutions were prepared for each 1×384 plate: • Solution A: 2 mL Optimem with one of the following stimuli: • 60 uL of 10 mM 2′3′cGAMP ->150 μM stock • Solution B: 2 mL Optimem with 60 μL Lipofectamine 2000->Incubate 5 min at RT
2 mL of solution A and 2 ml Solution B was mixed and incubated for 20 min at room temperature (RT). 20 uL of transfection solution (A+B) was added on top of the plated cells, with a final 2′3′cGAMP concentration of 15 μM. The plates were then centrifuged immediately at 340 g for 1 minute, after which they were incubated at 37° C., 5% CO2, >98% humidity for 24h. Luciferase reporter activity was then measured. EC50 values were calculated by using standard methods known in the art.
Luciferase reporter assay: 10 μL of supernatant from the assay was transferred to white 384-plate with flat bottom and squared wells. One pouch of QUANTI-Luc™ Plus was dissolved in 25 mL of water. 100 μL of QLC Stabilizer per 25 mL of QUANTI-Luc™ Plus solution was added. 50 μL of QUANTI-Luc™ Plus/QLC solution per well is then added. Luminescence is measured on a Platereader (e.g., Spectramax I3X (Molecular Devices GF3637001)).
Luciferase reporter activity was then measured. EC50 values were calculated by using standard methods known in the art.

Chain of STING (Q86WV6 whole entry R71H/G230A/H232R/R293Q): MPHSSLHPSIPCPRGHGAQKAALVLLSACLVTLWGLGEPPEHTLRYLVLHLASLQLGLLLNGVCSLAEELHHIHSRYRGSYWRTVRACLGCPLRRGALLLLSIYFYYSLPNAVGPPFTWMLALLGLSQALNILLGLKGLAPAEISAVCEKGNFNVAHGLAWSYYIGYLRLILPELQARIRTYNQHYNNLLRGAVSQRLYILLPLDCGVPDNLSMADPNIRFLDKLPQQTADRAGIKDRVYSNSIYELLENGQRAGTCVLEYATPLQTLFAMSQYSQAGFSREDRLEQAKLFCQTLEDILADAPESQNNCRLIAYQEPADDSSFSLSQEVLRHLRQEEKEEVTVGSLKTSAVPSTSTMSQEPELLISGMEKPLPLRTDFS

Row | EC50 [µM] | SMILES
1 | 1 to 5 | CCc1ccc2ccc(Nc3ccc4cc[nH]c4c3)nc2c1 [Compound 385]
2 | 1 to 5 | O=C(NCCOc1cccc(Br)c1)Nc1ccc2cc[nH]c2c1 [Compound 175]
3 | 5 to 100 | CN(C)CCc1cc(NC(=O)Nc2ccc(C(F)(F)F)cc2)cc2[nH]ccc12 [Compound 513]
4 | 1 to 5 | Cc1cc(Nc2ccc3ccc(Cl)cc3n2)cc2[nH]ccc12 [Compound 387]
5 | 5 to 100 | N#Cc1cc2cc(NC(=O)Nc3ccc(C(F)(F)F)cc3)ccc2[nH]1 [Compound 370]
6 | 0.2 to 1 | CCCCc1ccc(NC(=O)Nc2ccc3cc[nH]c3c2)cc1 [Compound 273]
7 | 5 to 100 | CC(C)(C)OC(=O)N1CCc2cnc(Nc3ccc4cc[nH]c4c3)nc2C1 [Compound 428, tert-butyl 2-((1H-indol-6-yl)amino)-5,6-dihydropyrido[3,4-d]pyrimidine-7(8H)-carboxylate]
8 | 5 to 100 | O=C(Nc1ccc(C(F)(F)F)cc1)Nc1ccc2[nH]cc(-c3cn[nH]c3)c2c1 [Compound 345]
9 | 5 to 100 | O=C(Nc1ccc(S(=O)(=O)C(F)(F)F)cc1)Nc1ccc2[nH]ccc2c1 [Compound 289]
10 | 5 to 100 | O=C(Nc1cccc(S(=O)(=O)N2CCCC2)c1)Nc1ccc2cc[nH]c2c1 [Compound 168]
11 | 5 to 100 | Clc1ccc(Nc2ccc3cc[nH]c3c2)nc1Nc1ccc2cc[nH]c2c1 [Compound 581, 3-chloro-N2,N6-bis(1H-indol-6-yl)pyridine-2,6-diamine]
12 | 5 to 100 | CC(C)c1ccc(-c2nnc(NC(=O)Nc3ccc4[nH]ccc4c3)s2)cc1 [Compound 279]
13 | 5 to 100 | FC(F)(F)COc1cccc(Nc2ccc3cc[nH]c3c2)n1 [Compound 396, N-(6-(2,2,2-trifluoroethoxy)pyridin-2-yl)-1H-indol-6-amine]
14 | 1 to 5 | [N-]=[N+]=Nc1ccc(NC(=O)Nc2ccc3cc[nH]c3c2)cc1 [Compound 510, 1-(4-azidophenyl)-3-(1H-indol-6-yl)urea]
15 | 1 to 5 | CC(=O)n1cc(C#N)c2ccc(NC(=O)Nc3ccc(C(F)(F)F)cc3)cc21 [Compound 529]
16 | 1 to 5 | Fc1cc(C(F)(F)F)cc2nc(Nc3ccc4cc[nH]c4c3)ccc12 [Compound 554]
17 | 1 to 5 | O=C(Nc1ccnc(C(F)(F)F)c1)Nc1ccc2cc[nH]c2c1 [Compound 250]
18 | 0.2 to 1 | O=C(Nc1cnc(N2CC(F)(F)C2)c(Cl)c1)Nc1ccc2c(F)c[nH]c2c1 [Compound 514]

Row | EC50 [µM] | SMILES
19 | 1 to 5 | O=C(Nc1ccc(C(F)(F)F)cc1)Nc1ccc2[nH]ccc2c1 [Compound 102]
20 | 5 to 100 | CCC(NC(=O)Nc1ccc2[nH]ccc2c1)c1cccc(C(F)(F)F)c1 (centres unmarked) [Compound 313]
21 | 1 to 5 | Cc1ccc(CCNC(=O)Nc2ccc3cc[nH]c3c2)cc1C [Compound 186]
22 | 1 to 5 | Cc1ccc2ccc(Nc3ccc4cc[nH]c4c3)nc2c1 [Compound 592]
23 | 0.2 to 1 | Fc1cc(C(F)(F)F)c2ccc(Nc3ccc4cc[nH]c4c3)nc2c1 [Compound 558]
24 | 1 to 5 | CCCCc1ccc(NC(=O)Nc2ccc3[nH]ccc3c2)cc1 [Compound 378]
25 | 0.2 to 1 | COC(=O)c1cc(NC(=O)Nc2ccc(C(F)(F)F)cc2)cc2[nH]ccc12 [Compound 165]
26 | 1 to 5 | O=C(NCc1cc(Cl)cc(C(F)(F)F)c1)Nc1cnc2cc[nH]c2c1 [Compound 507]
27 | 1 to 5 | c1ccc(-c2ccnc(Nc3ccc4cc[nH]c4c3)c2)cc1 [Compound 401, N-(4-phenylpyridin-2-yl)-1H-indol-6-amine]
28 | 5 to 100 | CC[C@H](NC(=O)Nc1ccc2cc[nH]c2c1)c1ccccc1 [Compound 222]
29 | 5 to 100 | Cc1cc2cc[nH]c2cc1NC(=O)Nc1ccc(C(F)(F)F)cc1 [Compound 265]
30 | 1 to 5 | O=C(Nc1ccc(C(F)(F)F)cc1)Nc1cc(C(=O)OC2CCCC2)c2cc[nH]c2c1 [Compound 602, cyclopentyl 6-(3-(4-(trifluoromethyl)phenyl)ureido)-1H-indole-4-carboxylate]
31 | 5 to 100 | CC(C)(C)OC(=O)N1CCC(c2ccnc(Nc3ccc4cc[nH]c4c3)n2)CC1 [Compound 429, tert-butyl4-(2-((1H-indol-6-yl)amino)pyrimidin-4-yl)piperidine-1-carboxylate]
32 | 5 to 100 | CN(c1ccc2cc[nH]c2c1)c1ccc2ccc(C(F)(F)F)cc2n1 [Compound 605, N-(1H-indol-6-yl)-N-methyl-7-(trifluoromethyl)quinolin-2-amine]
33 | 1 to 5 | CCCCCNC(=O)Nc1ccc2cc[nH]c2c1 [Compound 188]
34 | 5 to 100 | O=C(Nc1ccc(C(F)(F)F)cc1)Nc1cc2[nH]ccc2cc1F [Compound 262]
35 | 0.2 to 1 | N#Cc1cc(Nc2ccc3cc[nH]c3c2)cc(Nc2ccc3cc[nH]c3c2)n1 [Compound 582, 4,6-bis[(1H-indol-6-yl)amino]pyridine-2-carbonitrile]

Same assay, conditions: 15 μM 2′3′cGAMP, 24h, numeric bounds

Row | EC50 [µM] | SMILES
36 | > 30 | O=C(Nc1ccc(C(F)(F)F)cc1)Nc1cc(C(=O)O)c2cc[nH]c2c1 [Compound 166]
37 | > 30 | Cc1ccccc1CCNC(=O)Nc1ccc2[nH]ccc2c1 [Compound 324]
38 | > 30 | O=C(Nc1ccc2cc[nH]c2c1)NC1Cc2ccccc2C1 [Compound 161]
39 | > 30 | CCCCCCCCCCCCCCNC(=O)Nc1ccc2[nH]ccc2c1 [Compound 351]
40 | > 30 | CC(C)c1ccc(NC(=O)Nc2ccc3[nH]ccc3c2)cc1 [Compound 347]
41 | > 20.4 | c1ccc(-c2cccc(Nc3ccc4cc[nH]c4c3)n2)cc1 [Compound 427, N-(6-phenylpyridin-2-yl)-1H-indol-6-amine]
42 | > 30 | O=C(Nc1cccc(C(F)F)c1)Nc1ccc2[nH]ccc2c1 [Compound 303]
43 | > 30 | CC1(CNC(=O)Nc2ccc3[nH]ccc3c2)CCC(F)(F)CC1 [Compound 311]
44 | > 30 | COc1nc(Nc2ccc3cc[nH]c3c2)ccc1CO [Compound 561, {6-[(1H-indol-6-yl)amino]-2-methoxypyridin-3-yl}methanol]
45 | > 30 | O=C(NCCc1ccccc1)Nc1ccc2[nH]ccc2c1 [Compound 327]
46 | > 30 | O=C(NCCc1ncc(C(F)(F)F)cc1Cl)Nc1ccc2[nH]ccc2c1 [Compound 290]
47 | > 30 | O=C(NCCc1ccc(Br)cc1)Nc1ccc2[nH]ccc2c1 [Compound 353]
48 | > 30 | O=C(NCc1ccc(C(F)(F)F)c(Cl)c1)Nc1ccc2[nH]ccc2c1 [Compound 319]
49 | > 30 | O=C(NCC1CCC1)Nc1ccc2cc[nH]c2c1 [Compound 216]
50 | > 30 | Cc1ccccc1NC(=O)Nc1ccc2[nH]ccc2c1 [Compound 365]
51 | > 30 | CC(CNC(=O)Nc1ccc2[nH]ccc2c1)c1ccccc1 (centres unmarked) [Compound 325]
52 | > 30 | Cc1ccc(CNC(=O)Nc2ccc3cc[nH]c3c2)cc1C [Compound 223]

Row | EC50 [µM] | SMILES
53 | > 30 | c1cc(Nc2ccc3cc[nH]c3c2)nc(C2CC2)c1 [Compound 433, N-(6-cyclopropylpyridin-2-yl)-1H-indol-6-amine]
54 | > 30 | CNC(=O)c1c[nH]c2cc(NC(=O)Nc3ccc(C(F)(F)F)cc3)ccc12 [Compound 541]
55 | > 30 | CCCCCCCCc1ccc(NC(=O)Nc2ccc3[nH]ccc3c2)cc1 [Compound 352]
56 | > 30 | O=C(NCCc1c(F)cccc1Cl)Nc1ccc2[nH]ccc2c1 [Compound 323]
57 | > 30 | O=C(Nc1ccc2cc[nH]c2c1)Nc1ccno1 [Compound 191]
58 | > 30 | O=C(NCc1ccc(F)c(F)c1)Nc1ccc2cc[nH]c2c1 [Compound 221]
59 | > 30 | Cc1ccc(CNC(=O)Nc2ccc3[nH]ccc3c2)cc1 [Compound 339]
60 | > 30 | CC(=O)c1c[nH]c2cc(NC(=O)Nc3ccc(C(F)(F)F)cc3)ccc12 [Compound 522]
61 | > 30 | CC(Cc1cccc(C(F)(F)F)c1)NC(=O)Nc1ccc2[nH]ccc2c1 (centres unmarked) [Compound 288]
62 | > 30 | c1cnc(Nc2ccc3cc[nH]c3c2)c(C2CC2)c1 [Compound 394, N-(3-cyclopropylpyridin-2-yl)-1H-indol-6-amine]
63 | > 30 | Cc1nc(Nc2ccc3cc[nH]c3c2)ccc1F [Compound 584, N-(5-fluoro-6-methylpyridin-2-yl)-1H-indol-6-amine]
64 | > 30 | O=C(Nc1ccc2[nH]ccc2c1)Nc1ccc2[nH]ccc2c1 [Compound 283]
65 | > 30 | COc1nc(Nc2ccc3cc[nH]c3c2)ccc1C#N [Compound 603, 6-[(1H-indol-6-yl)amino]-2-methoxypyridine-3-carbonitrile]
66 | > 30 | Cn1cc(-n2cc(C#N)c3ccc(NC(=O)Nc4ccc(C(F)(F)F)cc4)cc32)cn1 [Compound 544]
67 | > 30 | Cc1cccc(CNC(=O)Nc2ccc3[nH]ccc3c2)c1 [Compound 340]
68 | > 30 | O=C(Nc1ccc2c(c1)CCC2)Nc1ccc2[nH]ccc2c1 [Compound 359]
